# Data reported in patent publication EP4759807A1, “PROTEOLYSIS TARGETING CHIMERA COMPOUND FOR DEGRADING IRAK4 AND USE THEREOF” (Shenzhen Zhongge Biological Technology Co., Ltd., priority 2023, dated 2025).
# Read-outs that look alike come from different tables or passages of the source.
# What was measured:
# CYP1A2 = target: T1, CYP1A2 (Homo sapiens, UniProt P05177); test: Inhibitory effect on human liver microsome CYP450 enzyme; assay type: in vitro ADME; conditions: human liver microsomes, substrate Phenacetin
# T1 construct: 0.05 mg/mL liver microsomes (BioIVT, IHG) phosphate buffer solution; tissue BioIVT IHG; host or cells: human liver microsomes
# T1 sequence (P05177 1-516): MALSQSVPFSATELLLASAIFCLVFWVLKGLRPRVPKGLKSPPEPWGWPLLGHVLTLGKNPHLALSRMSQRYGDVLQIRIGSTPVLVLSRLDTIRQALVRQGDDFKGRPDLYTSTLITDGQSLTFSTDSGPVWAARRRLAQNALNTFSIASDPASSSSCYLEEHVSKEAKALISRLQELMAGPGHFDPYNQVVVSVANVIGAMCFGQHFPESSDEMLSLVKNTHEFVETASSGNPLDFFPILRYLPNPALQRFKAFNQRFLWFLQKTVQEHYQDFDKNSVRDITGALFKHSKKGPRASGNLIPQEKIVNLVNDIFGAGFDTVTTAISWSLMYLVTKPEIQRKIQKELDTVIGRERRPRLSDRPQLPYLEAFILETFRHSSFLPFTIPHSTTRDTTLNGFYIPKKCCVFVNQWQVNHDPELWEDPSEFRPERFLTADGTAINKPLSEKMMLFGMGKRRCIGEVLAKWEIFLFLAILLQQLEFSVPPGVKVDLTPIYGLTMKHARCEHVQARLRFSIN
# Protocol: (§1) In this experiment, the compound, liver microsomes and different CYP isoform enzyme substrates were incubated in a 37°C water bath, the amount of substrate metabolites generated was measured, and the inhibitory effect of the compound of the present disclosure on CYP enzyme was evaluated based on the IC50 value.
# (§2) i. The compound was diluted with DMSO (Aladdin, catalog number: D103273-500ml) to concentrations of 0, 0.02, 0.06, 0.2, 0.6, 2 and 6 mM. The positive reference inhibitors for each CYP isoform and their concentrations are shown in Table 4 Table 4 Positive reference inhibitors for CYP isoform enzymes and their concentrations
# (§3) ii. Phosphate buffer (sigma: V900050-500G) was used to formulate the substrate solution for each CYP isoform enzyme. Table 5 The substrate and the concentration thereof for CYP isoform enzyme
# (§4) iii. Sample incubation. 1 µL of each concentration of the compound and positive reference inhibitor for CYP isoform enzyme were taken and placed into a 96-deep well plate (A-gen: P-1.0-RD-96-S), and 169 µL of 0.05 mg/mL liver microsomes (BioIVT, IHG) phosphate buffer solution (using 0.2 mg/mL liver microsomes for CYP2C19) was added. After uniform mixing, the plate was placed in a 37°C water bath (Shanghai Jinghong Experimental Equipment Co., Ltd., DK-500) with shaking for pre-incubation for 15 min. 10 µL of substrate (adding 1 µL of substrate for CYP3A4-Testosterone) and 20 µL of 10 mM NADPH phosphate buffer solution (MCE, HYF003/CS-4998) were added. After uniform mixing, the plate was incubated in a water bath with shaking for the following time: CYP1A2: 20 min, CYP2C9: 10 min, CYP2C19: 10 min, CYP2D6: 10 min, CYP3A4-Testosterone: 10 min, CYP3A4-Midazolam: 5 min. 400 µL of glacial acetonitrile/methanol (v/v, 1:1) containing an internal standard (500 nM tolbutamide, 5 nM terfenadine) was added to terminate the reaction. After centrifugation at 4000 rpm at 4°C for 40 min, the supernatant was taken and diluted with pure water according to the response of the metabolite of the substrate, and then UPLC-MS/MS (Sciex, Q-Trap 4500) was used for detection to obtain the peak area. The C18 chromatographic column was Kinetex 2.6u C18 100A (50 mm*3 mm).
# (§5) The inhibitory effect of the compound on each P450 enzyme in human liver microsomes was calculated as the percentage of reduced metabolite formation compared with the non-inhibitory control (i.e. blank DMSO). The IC50 value of the compound for each P450 enzyme in human liver microsomes was calculated with the logarithm of the remaining activity and the inhibitor concentration using Graphpad Prism software. The calculation equation was as follows: Peak area ratio = compound peak area / internal standard peak area [formula] [formula]
# (§6) In Graphpad Prism software, the IC50 value was calculated using the standard four-parameter curve fitting algorithm.
# CYP2C19 = target: T2, CYP2C19 (Homo sapiens, UniProt P33261); test: as above; assay type: in vitro ADME; conditions: human liver microsomes, substrate Mephenytoin
# T2 construct: (using 0.2 mg/mL liver microsomes for CYP2C19); tissue BioIVT IHG; host or cells: human liver microsomes
# Protocol: as §1, §2, §3, §4, §5, §6
# CYP2C9 = target: T3, CYP2C9 (Homo sapiens, UniProt P11712); test: as above; assay type: in vitro ADME; conditions: human liver microsomes, substrate Diclofenac Sodium
# T3 construct: 0.05 mg/mL liver microsomes (BioIVT, IHG) phosphate buffer solution; tissue BioIVT IHG; host or cells: human liver microsomes
# Protocol: as §1, §2, §3, §4, §5, §6
# CYP2D6 = target: T4, CYP2D6 (Homo sapiens, UniProt P10635); test: as above; assay type: in vitro ADME; conditions: human liver microsomes, substrate Dextromethorphan
# T4 construct: 0.05 mg/mL liver microsomes (BioIVT, IHG) phosphate buffer solution; tissue BioIVT IHG; host or cells: human liver microsomes
# Protocol: as §1, §2, §3, §4, §5, §6
# CYP3A4 = target: T5, CYP3A4 (Homo sapiens, UniProt P08684); test: as above; assay type: in vitro ADME; conditions: liver microsomes
# T5 construct: 0.05 mg/mL liver microsomes (BioIVT, IHG) phosphate buffer solution; tissue BioIVT IHG; host or cells: human liver microsomes
# Protocol: as §1, §2, §3, §4, §5, §6
# hERG ion channel = target: T6, hERG ion channel (Homo sapiens, UniProt Q12809); test: Inhibitory effect on hERG ion channels (manual patch clamp); assay type: cell-based; conditions: HEK293 cells stably expressing hERG channels, read-out: hERG (IC50, manupatch)
# T6 construct: host or cells: HEK293
# Protocol: In this experiment, the inhibitory effect of the compound on the hERG ion channel was detected by a manual patch clamp electrophysiological method, and the cardiac safety was evaluated based on the single concentration inhibition rate or IC50 of the compound.
# The cells used in this experiment were HEK293 cell lines transfected with hERG cDNA and stably expressing hERG channels (#60187, provided by BPS, P3-P23 generations were used for experimental research). The cells was cultured in a medium containing the following components: MEM medium, 10% (v/v) inactivated fetal bovine serum, 1 mM sodium pyruvate, 500 µg geneticin, 0.1 mM non-essential amino acids, 100 U penicillin-streptomycin. HEK293 hERG cells were grown in a culture flask containing the above culture solution and cultured in an incubator at 37°C and 5% CO2. […]
# A manual patch clamp system (HEKA EPC-10 signal amplifier and digital conversion system, purchased from HEKA Electronics, Germany) was used to record whole-cell currents in electrophysiological experiments. […] After the hERG current recorded in the above steps reached stabilization under the continuous perfusion of extracellular solution in the recording chamber, different concentrations of the compound to be tested could be perfused until the inhibitory effect of the drug on the hERG current reached a stable state. […]
# T5 sequence (P08684 whole entry): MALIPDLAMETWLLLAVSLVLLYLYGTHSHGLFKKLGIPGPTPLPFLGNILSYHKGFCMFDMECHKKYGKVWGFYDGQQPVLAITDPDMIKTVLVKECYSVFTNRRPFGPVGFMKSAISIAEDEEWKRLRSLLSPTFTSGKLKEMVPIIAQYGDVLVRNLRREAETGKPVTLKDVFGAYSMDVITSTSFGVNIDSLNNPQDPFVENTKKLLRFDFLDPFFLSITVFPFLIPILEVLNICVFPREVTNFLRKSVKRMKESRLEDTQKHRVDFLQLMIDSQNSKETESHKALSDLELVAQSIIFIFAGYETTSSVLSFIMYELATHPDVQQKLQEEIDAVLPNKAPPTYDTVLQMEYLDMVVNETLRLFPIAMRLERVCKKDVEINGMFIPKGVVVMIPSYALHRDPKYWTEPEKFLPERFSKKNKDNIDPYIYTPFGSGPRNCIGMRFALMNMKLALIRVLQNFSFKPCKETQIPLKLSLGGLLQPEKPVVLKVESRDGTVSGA
# T2 sequence (P33261 whole entry): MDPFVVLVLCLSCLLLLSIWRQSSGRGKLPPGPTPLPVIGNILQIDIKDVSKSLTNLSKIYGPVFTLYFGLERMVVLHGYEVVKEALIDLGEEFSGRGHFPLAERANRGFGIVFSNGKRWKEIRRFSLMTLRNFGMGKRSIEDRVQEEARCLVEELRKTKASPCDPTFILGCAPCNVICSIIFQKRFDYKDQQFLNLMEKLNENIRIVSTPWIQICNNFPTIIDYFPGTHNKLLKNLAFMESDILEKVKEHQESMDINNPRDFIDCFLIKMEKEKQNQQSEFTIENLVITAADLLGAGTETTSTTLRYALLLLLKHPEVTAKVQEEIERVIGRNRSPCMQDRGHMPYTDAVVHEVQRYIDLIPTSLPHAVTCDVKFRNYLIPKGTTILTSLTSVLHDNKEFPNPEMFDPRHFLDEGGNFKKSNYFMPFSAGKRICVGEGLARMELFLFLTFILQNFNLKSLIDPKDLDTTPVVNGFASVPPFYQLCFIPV
# T3 sequence (P11712 whole entry): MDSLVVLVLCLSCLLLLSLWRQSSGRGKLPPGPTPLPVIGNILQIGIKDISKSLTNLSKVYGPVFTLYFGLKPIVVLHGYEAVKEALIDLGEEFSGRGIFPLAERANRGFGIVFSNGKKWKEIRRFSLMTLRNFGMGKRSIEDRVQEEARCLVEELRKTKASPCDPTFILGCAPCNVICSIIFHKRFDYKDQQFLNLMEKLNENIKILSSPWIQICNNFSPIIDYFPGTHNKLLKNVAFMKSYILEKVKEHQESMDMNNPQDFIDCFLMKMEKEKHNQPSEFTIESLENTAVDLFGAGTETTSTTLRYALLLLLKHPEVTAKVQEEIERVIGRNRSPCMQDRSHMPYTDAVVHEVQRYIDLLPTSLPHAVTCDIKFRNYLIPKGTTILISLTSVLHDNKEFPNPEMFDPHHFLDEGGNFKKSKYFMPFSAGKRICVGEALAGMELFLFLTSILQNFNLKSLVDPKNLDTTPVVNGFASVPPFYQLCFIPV
# T6 sequence (Q12809 whole entry): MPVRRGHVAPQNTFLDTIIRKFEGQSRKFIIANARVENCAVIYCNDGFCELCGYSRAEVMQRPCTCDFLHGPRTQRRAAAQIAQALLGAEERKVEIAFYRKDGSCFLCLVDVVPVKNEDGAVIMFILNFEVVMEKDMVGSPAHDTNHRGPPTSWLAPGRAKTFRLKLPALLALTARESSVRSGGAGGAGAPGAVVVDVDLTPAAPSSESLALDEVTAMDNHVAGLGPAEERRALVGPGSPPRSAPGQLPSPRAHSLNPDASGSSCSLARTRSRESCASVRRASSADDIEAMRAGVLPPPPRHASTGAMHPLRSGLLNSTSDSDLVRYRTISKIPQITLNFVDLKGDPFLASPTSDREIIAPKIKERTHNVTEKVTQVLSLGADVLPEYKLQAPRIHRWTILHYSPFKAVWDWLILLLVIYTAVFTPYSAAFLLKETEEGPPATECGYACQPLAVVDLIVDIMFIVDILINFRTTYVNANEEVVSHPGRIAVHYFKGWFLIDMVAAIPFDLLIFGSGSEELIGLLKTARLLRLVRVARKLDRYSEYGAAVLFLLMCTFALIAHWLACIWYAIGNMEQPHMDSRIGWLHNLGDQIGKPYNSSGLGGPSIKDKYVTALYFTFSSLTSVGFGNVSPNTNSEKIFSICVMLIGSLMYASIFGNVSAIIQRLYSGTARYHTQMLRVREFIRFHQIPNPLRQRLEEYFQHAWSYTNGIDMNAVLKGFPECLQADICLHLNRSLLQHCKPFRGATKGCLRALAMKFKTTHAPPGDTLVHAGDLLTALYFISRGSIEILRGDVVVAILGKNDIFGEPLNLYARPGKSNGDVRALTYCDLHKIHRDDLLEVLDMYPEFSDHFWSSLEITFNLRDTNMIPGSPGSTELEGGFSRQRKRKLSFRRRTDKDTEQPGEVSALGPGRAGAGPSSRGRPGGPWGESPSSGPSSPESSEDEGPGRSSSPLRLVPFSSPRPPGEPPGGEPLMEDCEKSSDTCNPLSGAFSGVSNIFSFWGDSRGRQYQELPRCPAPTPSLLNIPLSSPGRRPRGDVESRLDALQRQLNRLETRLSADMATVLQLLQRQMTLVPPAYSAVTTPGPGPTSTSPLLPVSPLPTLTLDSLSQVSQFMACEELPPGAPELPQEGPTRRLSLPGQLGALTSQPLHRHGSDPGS
# T4 sequence (P10635 whole entry): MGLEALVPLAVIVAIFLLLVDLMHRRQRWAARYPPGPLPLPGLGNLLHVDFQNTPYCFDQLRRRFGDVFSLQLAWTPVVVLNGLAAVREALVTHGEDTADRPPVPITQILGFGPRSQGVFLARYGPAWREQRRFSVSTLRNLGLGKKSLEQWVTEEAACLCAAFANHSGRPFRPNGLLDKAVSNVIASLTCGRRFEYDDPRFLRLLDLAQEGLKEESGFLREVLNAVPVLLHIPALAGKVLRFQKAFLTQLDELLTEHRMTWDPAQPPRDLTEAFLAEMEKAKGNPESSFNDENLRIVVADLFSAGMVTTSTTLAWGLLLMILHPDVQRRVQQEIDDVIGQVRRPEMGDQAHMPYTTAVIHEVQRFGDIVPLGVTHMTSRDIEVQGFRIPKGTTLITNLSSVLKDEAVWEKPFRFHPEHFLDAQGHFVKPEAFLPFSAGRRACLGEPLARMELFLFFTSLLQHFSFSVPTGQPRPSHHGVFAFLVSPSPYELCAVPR
compound,measurement,setting,value
"Cn1c(=O)n(C2CCC(=O)NC2=O)c2cccc(C#CCOC3CCN(C[C@H]4CC[C@H](n5cc(NC(=O)c6cnn7ccc(N8C[C@H]9C[C@@H]8CO9)nc67)c(C(F)F)n5)CC4)CC3)c21 (stereo partly shown) [KT474, reference compound]",IC50,CYP1A2,> 30 µM
same,IC50,CYP2C19,3.81 µM
same,IC50,CYP2C9,9.61 µM
same,IC50,CYP2D6,> 30 µM
same,IC50,"CYP3A4; substrate Midazolam, read-out: IC50 (µM) CYP3A4-M",15.1 µM
same,IC50,"CYP3A4; substrate Testosterone, read-out: IC50 (µM) CYP3A4-T",> 30 µM
same,IC50,hERG ion channel,2.65 µM
